The structures appear in SMILES notation. Active and inactive are the calls of the source.

The values below come from ChEMBL document CHEMBL1201862, “PubChem BioAssay data set” (2004).

Holding throughout (type): functional
For test [1], the target named is Sphingosine 1-phosphate receptor 2 (Homo sapiens, UniProt O95136). The test can be described thus: Late-stage fluorescence-based dose-response cell-based counterscreen assay to identify agonists of the Sphingosine 1-Phosphate Receptor 3 (S1P3): Sphingosine 1-Phosphate Receptor 2 (S1P2) agonist assay. On the technique in general: A counterscreen serves to expose hits that act by an unwanted route or on another target.
Chain of Sphingosine 1-phosphate receptor 2 (O95136 whole entry): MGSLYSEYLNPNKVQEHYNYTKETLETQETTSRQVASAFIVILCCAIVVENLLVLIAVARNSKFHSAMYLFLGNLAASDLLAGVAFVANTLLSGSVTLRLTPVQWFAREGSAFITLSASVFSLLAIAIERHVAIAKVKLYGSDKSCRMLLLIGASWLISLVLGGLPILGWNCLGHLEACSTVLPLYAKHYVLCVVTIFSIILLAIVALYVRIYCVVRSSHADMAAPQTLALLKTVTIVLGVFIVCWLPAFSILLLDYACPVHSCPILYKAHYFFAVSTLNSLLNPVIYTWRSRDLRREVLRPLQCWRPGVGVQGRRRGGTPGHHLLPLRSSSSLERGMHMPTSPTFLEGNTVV

For test [2], the target named is T1, Sphingosine 1-phosphate receptor 4 (Homo sapiens, UniProt O95977).
T1 sequence (O95977 whole entry): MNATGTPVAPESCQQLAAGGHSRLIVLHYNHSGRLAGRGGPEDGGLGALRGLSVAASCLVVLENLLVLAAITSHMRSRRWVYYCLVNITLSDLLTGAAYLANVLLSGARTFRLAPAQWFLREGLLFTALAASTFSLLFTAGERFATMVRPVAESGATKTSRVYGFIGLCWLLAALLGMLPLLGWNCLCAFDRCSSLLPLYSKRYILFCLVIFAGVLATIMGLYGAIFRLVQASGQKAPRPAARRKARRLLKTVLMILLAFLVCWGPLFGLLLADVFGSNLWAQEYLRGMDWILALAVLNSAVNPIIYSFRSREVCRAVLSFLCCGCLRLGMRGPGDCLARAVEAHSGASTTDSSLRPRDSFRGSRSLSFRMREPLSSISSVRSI
The test can be described thus: Late-stage fluorescence-based dose-response cell-based counterscreen assay to identify agonists of the Sphingosine 1-Phosphate Receptor 3 (S1P3): Sphingosine 1-Phosphate Receptor 4 (S1P4) agonist assay.

The target in test [3] is Ras and Rab interactor 1/Tyrosine-protein kinase ABL1 (Homo sapiens, UniProt P00519+Q13671).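 Further: biochemical TR-FRET dose-response test measuring inhibition of binding between Rin1 and Abl proteins.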
Chain of Ras and Rab interactor 1/Tyrosine-protein kinase ABL1 (P00519 whole entry): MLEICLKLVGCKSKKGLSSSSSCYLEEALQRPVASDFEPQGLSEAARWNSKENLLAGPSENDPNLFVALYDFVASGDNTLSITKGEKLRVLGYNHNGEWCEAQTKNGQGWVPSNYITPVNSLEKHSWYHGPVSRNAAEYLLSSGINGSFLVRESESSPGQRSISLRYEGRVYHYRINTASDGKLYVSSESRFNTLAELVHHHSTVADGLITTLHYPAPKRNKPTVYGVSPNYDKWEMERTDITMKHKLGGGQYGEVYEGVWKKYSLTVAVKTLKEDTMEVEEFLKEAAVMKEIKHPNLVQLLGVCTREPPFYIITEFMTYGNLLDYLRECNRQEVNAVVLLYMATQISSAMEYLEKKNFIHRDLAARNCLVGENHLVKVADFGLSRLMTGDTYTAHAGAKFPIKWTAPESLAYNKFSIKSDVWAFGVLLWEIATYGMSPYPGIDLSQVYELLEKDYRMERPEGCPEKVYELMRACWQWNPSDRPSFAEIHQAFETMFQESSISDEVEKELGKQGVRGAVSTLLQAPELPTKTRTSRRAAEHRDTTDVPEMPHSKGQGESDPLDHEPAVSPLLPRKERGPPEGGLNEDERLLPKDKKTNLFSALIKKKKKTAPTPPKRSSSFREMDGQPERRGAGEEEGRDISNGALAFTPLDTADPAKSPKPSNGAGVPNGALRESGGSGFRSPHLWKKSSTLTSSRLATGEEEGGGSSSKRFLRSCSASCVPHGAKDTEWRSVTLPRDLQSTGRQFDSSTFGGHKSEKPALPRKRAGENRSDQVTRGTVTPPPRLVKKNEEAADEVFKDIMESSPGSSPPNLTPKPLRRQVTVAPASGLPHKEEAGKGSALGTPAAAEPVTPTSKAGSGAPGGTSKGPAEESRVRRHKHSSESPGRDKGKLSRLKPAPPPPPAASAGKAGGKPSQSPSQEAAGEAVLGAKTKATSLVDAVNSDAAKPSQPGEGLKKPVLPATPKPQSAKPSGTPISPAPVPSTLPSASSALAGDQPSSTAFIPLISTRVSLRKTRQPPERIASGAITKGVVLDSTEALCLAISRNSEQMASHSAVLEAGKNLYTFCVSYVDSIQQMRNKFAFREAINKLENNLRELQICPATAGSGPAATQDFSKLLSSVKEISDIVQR
Chain of Ras and Rab interactor 1/Tyrosine-protein kinase ABL1 (Q13671 whole entry): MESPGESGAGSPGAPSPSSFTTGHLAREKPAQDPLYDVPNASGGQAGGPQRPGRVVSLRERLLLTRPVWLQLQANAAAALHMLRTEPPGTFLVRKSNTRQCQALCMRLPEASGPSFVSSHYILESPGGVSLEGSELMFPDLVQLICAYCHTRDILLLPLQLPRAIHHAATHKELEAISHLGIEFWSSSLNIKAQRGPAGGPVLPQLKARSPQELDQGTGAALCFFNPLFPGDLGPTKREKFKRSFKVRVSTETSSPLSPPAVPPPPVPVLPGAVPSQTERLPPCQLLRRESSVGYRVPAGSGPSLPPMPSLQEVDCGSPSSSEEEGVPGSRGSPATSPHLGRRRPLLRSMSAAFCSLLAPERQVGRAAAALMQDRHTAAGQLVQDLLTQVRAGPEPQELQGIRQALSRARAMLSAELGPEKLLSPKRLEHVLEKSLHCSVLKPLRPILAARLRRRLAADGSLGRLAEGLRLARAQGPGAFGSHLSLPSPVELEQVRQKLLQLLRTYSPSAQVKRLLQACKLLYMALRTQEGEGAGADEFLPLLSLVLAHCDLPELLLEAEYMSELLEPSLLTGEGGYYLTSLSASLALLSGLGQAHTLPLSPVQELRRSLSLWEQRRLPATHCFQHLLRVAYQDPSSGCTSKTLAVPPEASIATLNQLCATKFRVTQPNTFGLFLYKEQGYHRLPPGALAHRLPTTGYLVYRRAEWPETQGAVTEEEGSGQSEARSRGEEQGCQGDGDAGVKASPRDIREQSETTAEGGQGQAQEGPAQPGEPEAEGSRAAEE
In test [4] the target is T2, Sentrin-specific protease 8 (Homo sapiens, UniProt Q96LD8).
T2 sequence (Q96LD8 whole entry): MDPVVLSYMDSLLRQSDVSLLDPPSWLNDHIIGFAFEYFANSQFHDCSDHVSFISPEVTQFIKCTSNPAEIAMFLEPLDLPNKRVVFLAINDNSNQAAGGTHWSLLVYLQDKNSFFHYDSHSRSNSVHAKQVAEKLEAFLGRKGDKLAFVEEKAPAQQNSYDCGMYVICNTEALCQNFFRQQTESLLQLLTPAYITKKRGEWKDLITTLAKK
Briefly: inhibition of human SENP8 cleavage activity – biochemical, luminescence, SAR follow-up (AID 504501).

The target of test [5] is T3, Caspase-3 (Homo sapiens, UniProt P42574).
T3 sequence (P42574 whole entry): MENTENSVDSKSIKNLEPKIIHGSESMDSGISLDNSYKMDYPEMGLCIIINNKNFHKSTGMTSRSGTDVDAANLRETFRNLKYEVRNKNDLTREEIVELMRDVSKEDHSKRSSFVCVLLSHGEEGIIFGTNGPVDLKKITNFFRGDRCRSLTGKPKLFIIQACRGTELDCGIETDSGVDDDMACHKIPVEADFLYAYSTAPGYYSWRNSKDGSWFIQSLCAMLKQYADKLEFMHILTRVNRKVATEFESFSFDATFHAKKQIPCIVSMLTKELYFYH
The test can be described thus: inhibition of recombinant caspase-3 activity – biochemical, luminescence, set 2, selectivity assay for SENP protease inhibitor project, SAR follow-up (AID 588599).

The target of test [6] is T2, Sentrin-specific protease 8. Briefly: inhibition of sentrin protease 8 – biochemical, luminescence, set 2, SAR follow-up (AID 588601).
Test [7] addresses T3, Caspase-3. The test can be described thus: SAR Analysis of small molecule inhibitors of Sentrin-specific proteases (SENPs) using a Caspase-3 Selectivity assay. [Related pubchem assays (depositor defined):AID2540, AID2599, AID434973, AID489001].
Test [8] concerns the target T4, Sentrin-specific protease 7 (Homo sapiens, UniProt Q9BQF6).
T4 sequence (Q9BQF6 whole entry): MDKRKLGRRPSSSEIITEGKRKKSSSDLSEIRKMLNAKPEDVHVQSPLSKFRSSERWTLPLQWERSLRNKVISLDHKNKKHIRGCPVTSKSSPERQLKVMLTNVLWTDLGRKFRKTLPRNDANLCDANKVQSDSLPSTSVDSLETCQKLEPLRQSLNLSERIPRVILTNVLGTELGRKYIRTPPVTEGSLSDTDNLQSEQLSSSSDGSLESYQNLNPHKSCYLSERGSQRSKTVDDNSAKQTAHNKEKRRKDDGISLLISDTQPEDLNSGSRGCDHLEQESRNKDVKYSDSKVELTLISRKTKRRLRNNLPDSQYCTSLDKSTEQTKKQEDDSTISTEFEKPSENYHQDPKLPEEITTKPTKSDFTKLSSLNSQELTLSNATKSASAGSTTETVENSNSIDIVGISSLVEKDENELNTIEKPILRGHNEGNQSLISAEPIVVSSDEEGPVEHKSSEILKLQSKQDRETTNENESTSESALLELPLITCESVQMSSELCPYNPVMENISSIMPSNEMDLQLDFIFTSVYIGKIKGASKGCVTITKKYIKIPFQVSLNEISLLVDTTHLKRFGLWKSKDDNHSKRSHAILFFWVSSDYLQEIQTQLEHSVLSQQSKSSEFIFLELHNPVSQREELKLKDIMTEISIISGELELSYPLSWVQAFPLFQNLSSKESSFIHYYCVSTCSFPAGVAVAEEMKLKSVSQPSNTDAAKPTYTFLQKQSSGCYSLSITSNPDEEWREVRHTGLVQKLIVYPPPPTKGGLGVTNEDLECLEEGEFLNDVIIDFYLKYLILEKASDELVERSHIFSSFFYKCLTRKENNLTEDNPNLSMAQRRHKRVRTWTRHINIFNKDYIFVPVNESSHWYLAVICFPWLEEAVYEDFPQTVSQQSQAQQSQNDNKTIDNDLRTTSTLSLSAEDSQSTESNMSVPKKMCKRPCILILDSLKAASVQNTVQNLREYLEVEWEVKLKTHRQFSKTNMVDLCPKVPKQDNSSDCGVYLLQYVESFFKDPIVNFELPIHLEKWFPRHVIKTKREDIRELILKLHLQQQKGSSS
Briefly: inhibition of human SENP7 cleavage activity – biochemical, luminescence, set 2, SAR follow-up (AID 588600).

For test [9], the target named is T5, Sentrin-specific protease 6 (Homo sapiens, UniProt Q9GZR1).
T5 sequence (Q9GZR1 whole entry): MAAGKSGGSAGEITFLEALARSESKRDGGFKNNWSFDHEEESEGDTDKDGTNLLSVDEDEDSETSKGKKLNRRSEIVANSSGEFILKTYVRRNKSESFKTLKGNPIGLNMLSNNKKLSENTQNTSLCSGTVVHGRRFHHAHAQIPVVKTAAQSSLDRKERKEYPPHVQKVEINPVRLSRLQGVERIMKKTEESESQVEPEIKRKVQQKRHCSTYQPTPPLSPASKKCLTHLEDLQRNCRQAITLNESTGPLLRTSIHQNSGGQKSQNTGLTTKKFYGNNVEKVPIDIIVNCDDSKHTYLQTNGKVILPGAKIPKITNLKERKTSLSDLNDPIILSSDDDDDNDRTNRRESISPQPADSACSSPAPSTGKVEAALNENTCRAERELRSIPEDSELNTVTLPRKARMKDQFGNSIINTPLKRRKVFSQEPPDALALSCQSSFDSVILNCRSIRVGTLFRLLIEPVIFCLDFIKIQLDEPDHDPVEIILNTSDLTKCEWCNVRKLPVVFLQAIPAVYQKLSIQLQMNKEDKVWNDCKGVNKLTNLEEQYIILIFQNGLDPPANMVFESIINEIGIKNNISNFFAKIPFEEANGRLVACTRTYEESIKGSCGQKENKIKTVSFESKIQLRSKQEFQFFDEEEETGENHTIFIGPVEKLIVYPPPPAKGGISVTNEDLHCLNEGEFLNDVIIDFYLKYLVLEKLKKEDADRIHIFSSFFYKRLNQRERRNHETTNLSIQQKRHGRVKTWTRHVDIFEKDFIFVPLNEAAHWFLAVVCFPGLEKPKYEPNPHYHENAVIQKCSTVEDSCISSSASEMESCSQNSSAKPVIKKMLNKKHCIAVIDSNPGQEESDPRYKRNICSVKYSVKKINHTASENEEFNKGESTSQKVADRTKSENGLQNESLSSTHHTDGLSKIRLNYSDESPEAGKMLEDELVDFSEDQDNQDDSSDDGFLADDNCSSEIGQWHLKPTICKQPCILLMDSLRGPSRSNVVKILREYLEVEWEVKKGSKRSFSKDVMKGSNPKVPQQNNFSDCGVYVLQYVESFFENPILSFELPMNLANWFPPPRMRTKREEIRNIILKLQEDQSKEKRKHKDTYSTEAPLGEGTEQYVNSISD
Briefly: SAR Analysis of small molecule inhibitors of Sentrin-specific protease 6 (SENP6) using a Luminescent assay. [Related pubchem assays (depositor defined):AID2582, AID2599].

In test [10] the target is T4, Sentrin-specific protease 7. The test can be described thus: inhibition of human SENP7 cleavage activity – biochemical, luminescence, SAR follow-up (AID 504497).
The target of test [11] is Aurora kinase A (Homo sapiens, UniProt O14965).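 Further: value from the Navigating the Kinome kinase panel profiling, panel entry STK6.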
Chain of Aurora kinase A (O14965 whole entry): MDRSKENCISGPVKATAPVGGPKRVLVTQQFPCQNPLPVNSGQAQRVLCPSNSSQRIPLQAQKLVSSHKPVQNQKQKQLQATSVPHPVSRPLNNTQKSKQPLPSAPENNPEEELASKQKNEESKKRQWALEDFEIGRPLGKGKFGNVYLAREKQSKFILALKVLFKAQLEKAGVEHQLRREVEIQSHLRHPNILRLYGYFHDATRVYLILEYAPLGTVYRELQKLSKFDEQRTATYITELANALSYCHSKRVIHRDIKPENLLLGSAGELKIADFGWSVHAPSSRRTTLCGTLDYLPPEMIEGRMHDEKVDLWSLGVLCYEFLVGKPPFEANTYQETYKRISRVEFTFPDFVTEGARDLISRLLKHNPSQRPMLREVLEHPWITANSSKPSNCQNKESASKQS
For test [12], the target named is High affinity nerve growth factor receptor (Homo sapiens, UniProt P04629).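 Further: NTRK1 tested as one member of a kinome-wide profiling panel.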
Chain of High affinity nerve growth factor receptor (P04629 whole entry): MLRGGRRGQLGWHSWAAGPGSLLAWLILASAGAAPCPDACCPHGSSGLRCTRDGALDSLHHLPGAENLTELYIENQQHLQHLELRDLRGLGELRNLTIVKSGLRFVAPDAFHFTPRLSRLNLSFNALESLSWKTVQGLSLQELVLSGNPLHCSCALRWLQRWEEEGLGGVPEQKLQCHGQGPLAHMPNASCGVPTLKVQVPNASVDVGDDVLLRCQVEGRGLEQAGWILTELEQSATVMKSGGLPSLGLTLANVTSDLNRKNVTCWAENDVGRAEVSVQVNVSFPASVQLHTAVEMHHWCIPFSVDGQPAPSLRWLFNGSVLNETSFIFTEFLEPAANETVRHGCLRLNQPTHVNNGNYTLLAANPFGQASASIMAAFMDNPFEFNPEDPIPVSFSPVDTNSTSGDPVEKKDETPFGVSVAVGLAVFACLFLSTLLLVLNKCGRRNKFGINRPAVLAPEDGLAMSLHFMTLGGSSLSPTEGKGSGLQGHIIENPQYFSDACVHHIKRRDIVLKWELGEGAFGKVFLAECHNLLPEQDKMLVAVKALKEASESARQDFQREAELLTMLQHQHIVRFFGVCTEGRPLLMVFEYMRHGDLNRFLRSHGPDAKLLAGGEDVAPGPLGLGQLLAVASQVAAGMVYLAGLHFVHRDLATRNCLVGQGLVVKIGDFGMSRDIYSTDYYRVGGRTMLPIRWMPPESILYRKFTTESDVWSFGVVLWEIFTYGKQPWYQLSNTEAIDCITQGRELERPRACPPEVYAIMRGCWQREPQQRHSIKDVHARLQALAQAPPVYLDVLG

Turning to `O=C(NC1CCCCC1)c1cc(C2CC2)on1`, the EC50 in [1] and in [2] was > 50 µM (inactive) each time.
On to `CCN(CC(=O)Nc1ccc(NC(C)=O)cc1)C(=O)c1ccccc1SCc1c(C)noc1C`, for which the IC50 – broadly, the point on the concentration scale where inhibition reaches its midpoint – in test [3] is 2.22 µM (active).
As for `Fc1ccc(-c2noc(/C=C/c3ccccc3)n2)cc1`, the IC50 in [4] is > 99 µM (inactive); in [5], 20.5 µM (active); in [6], 2.98 µM (active); in test [7], 18 µM (active); in test [8] it was 3.38 µM (active); in test [9], > 99 µM (inactive). In test [10], the IC50 is 8.8 µM (active).
As to `CCOc1ccc(-c2nc(C(=O)N(C3CCCCC3)C3CCCCC3)co2)cc1OCC`, the EC50 in test [1] and in [2] was > 50 µM (inactive) throughout.
In the case of `CCOC(=O)C(C(N)=O)C(=S)Nc1ccc(C)cc1` (centres undefined), the inhibition constant (Ki) (in general, the equilibrium dissociation constant of an inhibitor or competing ligand from its target) is 0.0501 µM (active) in test [11] and 5.01 µM (active) in [12].
